In series [1] the target is T1, Estrogen Receptor (ERα) in MCF-7 cells (Homo sapiens (Human), UniProt P03372). Kind of series: Western blotting assay, ER down-regulation in MCF-7. The following applies: 100 nM compound, 48 h, normalised to 100 nM fulvestrant. It counts as cell-based. The procedure:
(§1) Cells were incubated with compounds (100 nM) or vehicle control (0.1% DMSO) for 48 h at 37° C., 5% CO2 before washing once with PBS and lysing with 80 μl lysis buffer (25 mM Tris/HCl, 3 mM EDTA, 3 mM EGTA, 50 mM NaF, 2 mM sodium orthovanadate, 0.27 M sucrose, 10 mM β-glycerophosphate, 5 mM sodium pyrophosphate, 0.5% TritonX-100, pH 6.8) on ice.
(§2) Samples were boiled for 10 min at 95° C. and then frozen at −20° C. until ready for use.
(§3) The blot was stained with Ponceau S (P7170, Sigma) and cut according to appropriate molecular weight markers.
(§4) Membranes were blocked for 1 hour at room temp in 5% Marvel (w/v) in phosphate-buffered saline containing 0.05% Tween™ 20 (PBS/Tween). Blots were then incubated with anti-ERα (SP1) rabbit monoclonal antibody (Thermofisher) diluted 1:1000 at 4° C. overnight (with gentle shaking) followed by several washes with PBS/Tween. […] All antibodies were made up in 5% Marvel (w/v) in PBS/Tween.
(§5) Down-regulation of the ERα receptor was normalised to the vehicle control (0% down-regulation) and the 100 nM fulvestrant control (100% down-regulation) run within the same gel.
In general terms: A western blot detects proteins with antibodies after separation by electrophoresis.

Series [2] in a line: log D (shake flask, 1-octanol/aqueous buffer). It counts as physicochemical. The method, boiled down:
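Distribution between 1-octanol and aqueous buffer at pH 7.4 was measured by shake flask, with compounds run in mixtures of ten. Relative concentrations in each phase were quantified by UPLC with quantitative MS. Caffeine served as a low-log D QC sample in all runs.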

The target in series [3] is T1, Estrogen Receptor (ERα) in MCF-7 cells. Kind of series: MCF-7 ER down-regulation assay (immuno-fluorescence). Type of series: cell-based. In outline:
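Compounds dispensed acoustically from DMSO stocks onto MCF-7 cells; cells fixed 20 min at room temperature, then automated immunostaining for ERα with overnight incubation at 4° C. Read-out is mean total ER fluorescence intensity normalized to cell number (intensity per cell), with curve fitting for concentration-response values.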

A further series deals with hERG potassium channel (Homo sapiens (Human), UniProt Q12809). Kind of series: hERG binding assay (automated patch clamp, CHO cells). It counts as cell-based. The following applies: CHO cell line, Nanion Syncropatch 384PE. In outline:
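CHO cells on automated patch clamp; compounds tested in quadruplicate. Currents evoked every 15 s from −80 mV holding by a 500 ms step to 60 mV then 500 ms to −40 mV.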
Background: The hERG channel carries a current that helps repolarise heart muscle cells.

The target of series [4] is recombinant human Estrogen Receptor alpha ligand binding domain (ER alpha-LBD (GST)) (Homo sapiens (Human), UniProt P03372). Kind of series: ERα binding assay (LanthaScreen TR-FRET competition). The following applies: TR-FRET, displacement of Fluormone ES2. In outline:
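Competition binding to GST-tagged human ERα ligand-binding domain, read by LanthaScreen TR-FRET: Tb-anti-GST antibody labels the receptor and compounds displace a fluorescent tracer, lowering the signal. IC50 was taken from dose-response curve fitting.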
On the technique in general: In TR-FRET formats the signal depends on donor and acceptor labels being close together.

Series [5] is described as follows: Human plasma protein binding (equilibrium dialysis). It counts as in vitro ADME. The following applies: dialysis 18 hours. The method, boiled down: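 Fraction unbound (fu %) in human plasma, from LC/MSMS of plasma and buffer sides (7-point plasma calibration) after 18 h rapid equilibrium dialysis. Single determinations, with compounds pooled up to 10 per plasma pool.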

The target of series [6] is estrogen receptor (ERα) in CAMA-1 cells (Homo sapiens (Human), UniProt P03372). Kind of series: Western blotting assay, ER down-regulation in CAMA-1. Type of series: cell-based. To be noted: 100 nM compound, 48 h, normalised to 100 nM fulvestrant. The procedure:
as §1, §2, §3, §4, §5

A short description of series [7]: Thermodynamic solubility (shake-flask). Type of series: physicochemical. To be noted: aqueous phosphate buffer, 25 °C, pH 7.4, aqueous buffer, thermodynamic from solid, aqueous phosphate buffer pH 7.4, 24 hours. The method, boiled down: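 Shake-flask method starting from 10 mM DMSO stocks, which are dried before use. Residue equilibrated 24 h at 25° C. in aqueous phosphate buffer, pH 7.4. Dissolved fraction separated and quantified by UPLC/MS/MS, with QC samples in each run.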

Where [8] appears, read: 1-octanol/aqueous buffer, pH 7.4, pH 7.4, 1-octanol/aqueous buffer.

≈ marks a conversion by molar mass, not a printed value.

T1 sequence (P03372 whole entry): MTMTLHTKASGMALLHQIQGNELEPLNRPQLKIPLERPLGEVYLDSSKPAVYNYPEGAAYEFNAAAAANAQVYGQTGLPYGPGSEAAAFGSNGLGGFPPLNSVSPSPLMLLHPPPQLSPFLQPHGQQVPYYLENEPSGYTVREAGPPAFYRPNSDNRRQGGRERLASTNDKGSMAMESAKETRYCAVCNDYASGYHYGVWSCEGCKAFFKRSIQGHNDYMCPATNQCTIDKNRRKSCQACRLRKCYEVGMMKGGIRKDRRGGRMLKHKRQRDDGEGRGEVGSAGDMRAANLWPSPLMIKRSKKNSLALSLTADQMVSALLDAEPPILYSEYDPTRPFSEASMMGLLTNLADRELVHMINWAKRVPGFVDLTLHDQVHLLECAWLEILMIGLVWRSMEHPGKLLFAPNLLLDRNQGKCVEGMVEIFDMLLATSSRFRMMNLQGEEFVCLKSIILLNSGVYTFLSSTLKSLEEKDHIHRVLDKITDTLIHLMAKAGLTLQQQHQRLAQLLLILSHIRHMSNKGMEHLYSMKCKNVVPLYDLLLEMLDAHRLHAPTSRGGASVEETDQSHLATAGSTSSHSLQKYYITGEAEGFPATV
Sequence of estrogen receptor (ERα) in CAMA-1 cells (P03372 whole entry): as above
Sequence of hERG potassium channel (Q12809 whole entry): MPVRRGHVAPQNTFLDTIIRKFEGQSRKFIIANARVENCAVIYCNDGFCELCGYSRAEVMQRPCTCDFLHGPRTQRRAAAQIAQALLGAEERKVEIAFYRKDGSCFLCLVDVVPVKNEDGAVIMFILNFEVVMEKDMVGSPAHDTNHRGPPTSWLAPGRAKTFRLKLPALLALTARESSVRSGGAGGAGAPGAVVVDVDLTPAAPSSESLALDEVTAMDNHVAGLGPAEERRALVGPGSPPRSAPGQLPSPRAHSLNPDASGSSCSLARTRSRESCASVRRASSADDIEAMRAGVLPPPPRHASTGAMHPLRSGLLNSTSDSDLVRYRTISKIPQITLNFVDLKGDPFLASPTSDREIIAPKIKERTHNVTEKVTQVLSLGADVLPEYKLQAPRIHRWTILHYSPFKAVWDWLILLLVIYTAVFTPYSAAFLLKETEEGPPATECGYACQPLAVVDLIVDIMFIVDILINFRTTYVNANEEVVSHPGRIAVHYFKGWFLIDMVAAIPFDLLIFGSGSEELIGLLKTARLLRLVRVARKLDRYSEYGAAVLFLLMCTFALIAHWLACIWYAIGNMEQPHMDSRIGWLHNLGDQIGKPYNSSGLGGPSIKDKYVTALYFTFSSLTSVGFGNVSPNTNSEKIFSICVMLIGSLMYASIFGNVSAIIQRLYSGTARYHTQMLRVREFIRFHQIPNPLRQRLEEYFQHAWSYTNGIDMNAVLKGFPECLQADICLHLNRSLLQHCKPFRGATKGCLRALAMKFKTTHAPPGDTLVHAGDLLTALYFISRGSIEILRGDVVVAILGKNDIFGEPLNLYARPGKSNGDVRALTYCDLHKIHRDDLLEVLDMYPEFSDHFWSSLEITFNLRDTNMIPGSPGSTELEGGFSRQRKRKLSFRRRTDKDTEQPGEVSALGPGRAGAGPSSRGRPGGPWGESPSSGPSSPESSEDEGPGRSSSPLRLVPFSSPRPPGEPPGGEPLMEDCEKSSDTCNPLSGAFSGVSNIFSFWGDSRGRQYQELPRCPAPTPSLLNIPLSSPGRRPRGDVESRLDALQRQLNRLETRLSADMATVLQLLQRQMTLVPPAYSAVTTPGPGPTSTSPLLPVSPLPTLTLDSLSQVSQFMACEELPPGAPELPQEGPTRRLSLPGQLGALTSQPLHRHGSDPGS
Sequence of recombinant human Estrogen Receptor alpha ligand binding domain (ER alpha-LBD (GST)) (P03372 307-554): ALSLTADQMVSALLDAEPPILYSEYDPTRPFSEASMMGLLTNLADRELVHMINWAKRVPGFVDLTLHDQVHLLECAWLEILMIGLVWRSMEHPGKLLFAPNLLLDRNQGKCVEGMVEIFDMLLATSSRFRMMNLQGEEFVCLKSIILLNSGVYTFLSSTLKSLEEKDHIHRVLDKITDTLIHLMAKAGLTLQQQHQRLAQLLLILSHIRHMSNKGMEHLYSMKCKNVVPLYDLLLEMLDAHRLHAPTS

Take `C[C@@H]1Cc2c(ccc3[nH]ncc23)[C@@H](c2c(F)cc(NC3CN(CCCF)C3)cc2F)N1CC(F)(F)CO` [Example 5, 3-((6S,8R)-6-(2,6-difluoro-4-((1-(3-fluoropropyl)azetidin-3-yl)amino)phenyl)-8-methyl-3,6,8,9-tetrahydro-7H-pyrazolo[4,3-f]isoquinolin-7-yl)-2,2-difluoropropan-1-ol]: the “MCF7 Western % ER deg vs Fv” value in series [1] turned out to be 99%. This compound also yielded a log distribution coefficient (logD) in series [2] (setting [8]) of 3.3. For the same compound, the IC50 in series [3] stood at 0.077 nM; on hERG potassium channel, 13 µM; in series [4], 2.2 nM. In addition, the “Human plasma protein binding (% free)” value in series [5] is listed as 8.6 % free. In series [6], the “CAMA1 Western % ER deg vs Fv” value came out at 109%. In addition, the solubility at 24 h in series [7] worked out at 297 µM (≈ 155 µg/mL).

With `C[C@@H]1Cc2c(ccc3[nH]ncc23)[C@@H](c2ccc(OC3CN(CCCF)C3)cn2)N1CC(F)F` [Example 26, (6S,8R)-7-(2,2-difluoroethyl)-6-(5-((1-(3-fluoropropyl)azetidin-3-yl)oxy)pyridin-2-yl)-8-methyl-6,7,8,9-tetrahydro-3H-pyrazolo[4,3-f]isoquinoline], the “MCF7 Western % ER deg vs Fv” value in series [1] was found to be 97%. In series [2] (setting [8]), this compound registered a logD of 3. Also, the IC50 turned out to be 0.52 nM in series [3] and 6.7 nM in series [4]. Also, in series [5], the “Human plasma protein binding (% free)” value is recorded as 22 % free. Further, the “CAMA1 Western % ER deg vs Fv” value in series [6] is recorded as 97%. Further, the solubility at 24 h in series [7] is 258 µM (≈ 119 µg/mL).

Turning to `C[C@@H]1Cc2c(ccc3[nH]ncc23)[C@@H](c2ccc(N(C)C3CN(CCCF)C3)cn2)N1CC(F)(F)F` [Example 34, N-(1-(3-fluoropropyl)azetidin-3-yl)-N-methyl-6-((6S,8R)-8-methyl-7-(2,2,2-trifluoroethyl)-6,7,8,9-tetrahydro-3H-pyrazolo[4,3-f]isoquinolin-6-yl)pyridin-3-amine], the “MCF7 Western % ER deg vs Fv” value in series [1] is listed as 85%. The compound also showed a pH-dependent lipophilicity (logD) in series [2] (pH 7.4, 1-octanol/aqueous buffer) of 3.2. Moreover, the half-inhibitory concentration (IC50) in series [3] turned out to be 0.22 nM; at hERG potassium channel, 7.7 µM; in series [4], 1.9 nM. Moreover, in series [5], the “Human plasma protein binding (% free)” value came to 15 % free. Moreover, the “CAMA1 Western % ER deg vs Fv” value in series [6] worked out at 82%. In series [7], this compound came in with a solubility at 24 h of 471 µM (≈ 231 µg/mL).

Take `C[C@@H]1Cc2c(ccc3[nH]ncc23)[C@@H](c2ccc(NC3CN(CCCF)C3)nc2F)N1CC(F)(F)F` [Example 40, 6-fluoro-N-(1-(3-fluoropropyl)azetidin-3-yl)-5-((6S,8R)-8-methyl-7-(2,2,2-trifluoroethyl)-6,7,8,9-tetrahydro-3H-pyrazolo[4,3-f]isoquinolin-6-yl)pyridin-2-amine]: in series [1], the “MCF7 Western % ER deg vs Fv” value came out at 98%. In addition, the logD in series [2] (setting [8]) worked out at 3.5. Moreover, the IC50 in series [3] was found to be 0.1 nM; on hERG potassium channel, 4.5 µM; in series [4] it was 1.3 nM. Also, the “Human plasma protein binding (% free)” value in series [5] worked out at 6.4 % free. Moreover, the “CAMA1 Western % ER deg vs Fv” value in series [6] is given as 120%. In series [7], this compound returned a solubility at 24 h of 479 µM (≈ 237 µg/mL).

In the case of `C[C@@H]1Cc2c(ccc3[nH]ncc23)[C@@H](c2cnc(NC3CN(CCCF)C3)cn2)N1CC(F)(F)F` [Example 42, N-(1-(3-fluoropropyl)azetidin-3-yl)-5-((6S,8R)-8-methyl-7-(2,2,2-trifluoroethyl)-6,7,8,9-tetrahydro-3H-pyrazolo[4,3-f]isoquinolin-6-yl)pyrazin-2-amine], the “MCF7 Western % ER deg vs Fv” value in series [1] was determined as 92%. The logD in series [2] (setting [8]) was found to be 2.4. Further, the IC50 in series [3] stood at 0.28 nM; at hERG potassium channel, 7.9 µM; in series [4], 3.8 nM. Further, the “CAMA1 Western % ER deg vs Fv” value in series [6] was determined as 79%. The solubility at 24 h in series [7] is 712 µM (≈ 340 µg/mL).

On to `C[C@@H]1Cc2c(ccc3[nH]ncc23)[C@@H](c2ncc(NC3CN(CCCF)C3)cc2F)N1CC(F)F` [Example 46, 6-((6S,8R)-7-(2,2-difluoroethyl)-8-methyl-6,7,8,9-tetrahydro-3H-pyrazolo[4,3-f]isoquinolin-6-yl)-5-fluoro-N-(1-(3-fluoropropyl)azetidin-3-yl)pyridin-3-amine], for which the “MCF7 Western % ER deg vs Fv” value in series [1] was 105%. This compound registered a log distribution coefficient (logD) in series [2] (setting [8]) of 2.5. The half-maximal inhibitory concentration (IC50) in series [3] is 0.4 nM; on hERG potassium channel, > 40 µM; in series [4] it was 3.6 nM. For the same compound, the “Human plasma protein binding (% free)” value in series [5] turned out to be 31 % free. Besides, the “CAMA1 Western % ER deg vs Fv” value in series [6] turned out to be 102%. In addition, the solubility at 24 h in series [7] is > 1000 µM.

`C[C@@H]1Cc2c(ccc3[nH]ncc23)[C@@H](c2c(F)cc(NC3CN(CCCF)C3)cc2F)N1CC(F)F` [Example 49, N-(4-((6S,8R)-7-(2,2-difluoroethyl)-8-methyl-6,7,8,9-tetrahydro-3H-pyrazolo[4,3-f]isoquinolin-6-yl)-3,5-difluorophenyl)-1-(3-fluoropropyl)azetidin-3-amine]: in series [1], the “MCF7 Western % ER deg vs Fv” value worked out at 98%. In series [2] (setting [8]), this compound displayed a log distribution coefficient (logD) of 3.8. The results for the half-maximal inhibitory concentration (IC50) (in series [3]; on hERG potassium channel; in series [4]) were 0.075 nM, 8.2 µM and 1.5 nM, respectively. Further, the “CAMA1 Western % ER deg vs Fv” value in series [6] came to 99%. In series [7], this compound yielded a solubility at 24 h of 163 µM (≈ 80.4 µg/mL).

As to `COc1cc(NC2CN(CCCF)C2)c(F)cc1[C@@H]1c2ccc3[nH]ncc3c2C[C@@H](C)N1CC1(F)CC1` [Example 53, N-(2-fluoro-4-((6S,8R)-7-((1-fluorocyclopropyl)methyl)-8-methyl-6,7,8,9-tetrahydro-3H-pyrazolo[4,3-f]isoquinolin-6-yl)-5-methoxyphenyl)-1-(3-fluoropropyl)azetidin-3-amine], the “MCF7 Western % ER deg vs Fv” value in series [1] was determined as 81%. This compound also had a logD in series [2] (setting [8]) of 3.2. Also, the 50% inhibitory concentration (IC50) stood at 0.26 nM in series [3] and 5.7 nM in series [4]. Further, in series [5], the “Human plasma protein binding (% free)” value is 11 % free. Also, the “CAMA1 Western % ER deg vs Fv” value in series [6] is 46%. The compound also returned a solubility at 24 h in series [7] of 691 µM (≈ 355 µg/mL).

As to `C[C@@H]1Cc2c(ccc3[nH]ncc23)[C@@H](c2ncc(OC3CN(CCCF)C3)cc2F)N1CC(F)(F)CO` [Example 59, 2,2-difluoro-3-((6S,8R)-6-(3-fluoro-5-((1-(3-fluoropropyl)azetidin-3-yl)oxy)pyridin-2-yl)-8-methyl-3,6,8,9-tetrahydro-7H-pyrazolo[4,3-f]isoquinolin-7-yl)propan-1-ol], the “MCF7 Western % ER deg vs Fv” value in series [1] was determined as 104%. In series [2] (setting [8]), this compound displayed a pH-dependent lipophilicity (logD) of 2.4. The IC50 in series [3] is 1.6 nM; at hERG potassium channel, > 40 µM; in series [4], 7.2 nM. Moreover, the “Human plasma protein binding (% free)” value in series [5] worked out at 33 % free. Moreover, the “CAMA1 Western % ER deg vs Fv” value in series [6] turned out to be 102%. The solubility at 24 h in series [7] was 971 µM (≈ 493 µg/mL).

Turning to `CC(C)CN1[C@H](c2ccc(NC3CN(CCCF)C3)cn2)c2ccc3[nH]ncc3c2C[C@H]1C` [Example 69, N-(1-(3-fluoropropyl)azetidin-3-yl)-6-((6S,8R)-7-isobutyl-8-methyl-6,7,8,9-tetrahydro-3H-pyrazolo[4,3-f]isoquinolin-6-yl)pyridin-3-amine], the “MCF7 Western % ER deg vs Fv” value in series [1] worked out at 95%. Moreover, the pH-dependent lipophilicity (logD) in series [2] (setting [8]) stood at 2.9. Further, the figures for the IC50 (in series [3]; on hERG potassium channel; in series [4]) were 0.55 nM, 24 µM and 8.9 nM, respectively. Further, the “Human plasma protein binding (% free)” value in series [5] turned out to be 37 % free. Besides, the “CAMA1 Western % ER deg vs Fv” value in series [6] is on record as 98%. For the same compound, in series [7], the solubility at 24 h is > 1000 µM.

As a reminder, the logD is lipophilicity at a set pH, counting ionised and neutral species. Lower therefore signals a more hydrophilic compound. For orientation: IC50 means the midpoint of a concentration-inhibition curve. By solubility is commonly meant the concentration that dissolves in the medium under given conditions. Lower therefore signals little dissolved substance.
